In patent US5221664A, “Composition and treatment with biologically active peptides and toxic cations” (Magainin Pharmaaceuticals Inc., priority 1991, dated 1993):
Several values for one entry are separate records, joined by “and”; a condition that tells them apart may be missing. Equal values may be shown once. Read-outs that look alike come from different tables or passages of the source. Ends that are not written are not given here.

Experiments:
[1] = tested on: P. aeruginosa strain 27853
Protocol: Approximately 1-5×10^5 colony forming units (CFUs) of P. aeruginosa strain 27853, dispersed in 100 μl of Trypticase soy broth (TSB), were added to each test well. […] B13-33 peptide is of the following structure:
The following peptide combinations were tested for Minimal Inhibitory Concentration (MIC) of the B13-33 peptide:
The following combinations were tested for the MIC of silver nitrate:
Approximately 1-5×10^5 CFUs of P. aeruginosa strain 27853 dispersed in 100 μl of TSB were added to each test well. […]

[2] = tested on: clinical isolate of a methicillin resistant S. aureus (MSRA); format: cell-based; settings: agent alone
Protocol: Approximately 1-5×10^5 CFUs of a clinical isolate of a methicillin resistant S. aureus (MSRA), dispersed in 100 μl of TSB were added to each test well. […] The MIC of each peptide alone, and of silver nitrate alone was determined. The MIC of each peptide when 5 μg/ml and/or 10 μg/ml of silver nitrate was added was determined as well.

[3] = tested on: P. aeruginosa strain 107 which was gentamicin resistant; test: Minimum Inhibitory Concentration (MIC) in TSB, test wells; format: cell-based; settings: for MIC: agent alone, gentamicin resistant P. aeruginosa strain 107; for MIC of the peptide: P. aeruginosa strain 107
Protocol: Approximately 1-5×10^5 CFUs of P. aeruginosa strain 107 which was gentamicin resistant, dispersed in 100 μl of TSB were added to each test well. […] The following combinations of Magainin II, with or without silver nitrate, were tested for Minimum Inhibitory Concentration (MIC) of Magainin II: […]

[4] = agent alone, P. aeruginosa strain 27853
[5] = plus 3 μg/ml silver nitrate, P. aeruginosa strain 27853

GIGKFLKKAKKFGKAFVKIMKK [B13-33 peptide]
MIC ([1]; strain 27853): 4 to 16 µg/mL

O=[N+]([O-])[O-].[Ag+] [Silver nitrate, silver nitrate, reference compound]
MIC [1, 4]: 4 to 8 µg/mL and 8 µg/mL | MIC ([1]; agent alone, P. aeruginosa strain 27853, listed as silver nitrate): 2 to 8 µg/mL | MIC of silver nitrate ([1]; plus 1.6 μg/ml B13-33 peptide, P. aeruginosa strain 27853): 2 to 8 µg/mL | MIC of silver nitrate ([1]; plus 5 μg/ml B13-33 peptide, P. aeruginosa strain 27853): < 0.25 µg/mL | MIC of silver nitrate ([1]; plus 5 μg/ml B13-33 peptide, P. aeruginosa strain 27853, listed as silver nitrate): less than 0.25 μg/ml | MIC [2]: 16 µg/mL | MIC [3]: 8 µg/mL

GIGKFLHSAKKFGKAFVGEIMNS-NH2 [Magainin II]
MIC of the peptide ([1]; plus 1 μg/ml silver nitrate, P. aeruginosa strain 27853): 32 µg/mL | MIC of the peptide ([1]; plus 2 μg/ml silver nitrate, P. aeruginosa strain 27853): 16 µg/mL | MIC of the peptide [1, 5]: 8 µg/mL | MIC of the peptide ([1]; plus 4 μg/ml silver nitrate, P. aeruginosa strain 27853): < 0.03 µg/mL | MIC [3]: 256 µg/mL | MIC of the peptide ([3]; plus 1 μg/ml silver nitrate): 32 µg/mL | MIC of the peptide ([3]; plus 2 μg/ml silver nitrate): 16 µg/mL | MIC of the peptide ([3]; plus 3 μg/ml silver nitrate): 16 µg/mL | MIC of the peptide ([3]; plus 4 μg/ml silver nitrate): 4 µg/mL | MIC of the peptide ([3]; plus 5 μg/ml silver nitrate): < 0.03 µg/mL

KWKLFKKIEKVGQRVRDAVISAGPAVATVAQATALAK [Cecropin A-D]
MIC [1, 4]: 16 µg/mL | MIC of the peptide [1, 5]: < 0.25 µg/mL
